Laboratory results from patent US10350177B2, “Antibacterial S-heterosubstituted disulfides” (priority 2007, dated 2019).
Values after ≈ are worked out from the molar mass of the structure shown.

Columns and labels:
Assay type in all cases: cell-based
[1] = tested on: Staphylococcus aureus (ATCC-849); assay: MIC by agar dilution against Staphylococcus aureus; conditions: for MIC: ATCC849
[2] = tested on: Methicillin Resistant Staphylococcus aureus (ATCC-919); assay: MIC by agar dilution against methicillin-resistant Staphylococcus aureus; conditions: for MIC: ATCC 919 / MRSA
[3] = tested on: Live Vaccine Strain of Francisella tularensis; assay: microbe, parasite or virus in culture

Row | SMILES | MIC [1] [µg/mL] | MIC [2] [µg/mL] | MIC [3] [µg/mL] | MIC S.A. [1] [µg/mL] | MIC MRSA [2] [µg/mL]
1 | c1ccc(OSSOc2ccccc2)cc1 [V] | 2 (≈ 7.99 µM) | 2 (≈ 7.99 µM) | 1 (≈ 3.99 µM) | – | –
2 | O=C(O)c1cn(C2CC2)c2cc(N3CCNCC3)c(F)cc2c1=O [Ciprofloxacin, reference compound] | – | – | 16 (≈ 48.3 µM) | – | –
3 | CCCCSSSSCCCC [XIII] | 64 (≈ 264 µM) | 32 (≈ 132 µM) | 4 (≈ 16.5 µM) | – | –
4 | CCC(C)SSSSC(C)CC (stereo not drawn) [XIV] | 32 (≈ 132 µM) | 64 (≈ 264 µM) | 16 (≈ 66 µM) | – | –
5 | CC(C)CN(CC(C)C)SSN(CC(C)C)CC(C)C [XX] | 16 (≈ 49.9 µM) | 16 (≈ 49.9 µM) | 1 (≈ 3.12 µM) | – | –
6 | CCN(CC)SSN(CC)CC [XVII] | 2 (≈ 9.6 µM) | 2 (≈ 9.6 µM) | 16 (≈ 76.8 µM) | – | –
7 | CC1(C)S[C@@H]2[C@H](NC(=O)Cc3ccccc3)C(=O)N2[C@H]1C(=O)O [Penicillin G, reference compound] | – | – | – | 0.125 (≈ 0.374 µM) | 16 (≈ 47.8 µM)
8 | CCCNSSNCCC [VI] | 8 (≈ 44.4 µM) | 4 (≈ 22.2 µM) | 16 (≈ 88.7 µM) | – | –
9 | CCN(SSN(C(C)C)C(C)C)C(C)C [XVIII] | 2 (≈ 7.98 µM) | 1 (≈ 3.99 µM) | 32 (≈ 128 µM) | – | –
10 | CCCCNSSNCCCC [VIII] | 8 (≈ 38.4 µM) | 32 (≈ 154 µM) | 4 (≈ 19.2 µM) | – | –
11 | C=CCN(CC=C)SSN(CC=C)CC=C [XIX] | 1 (≈ 3.9 µM) | 0.5 (≈ 1.95 µM) | 16 (≈ 62.4 µM) | – | –
12 | c1ccc(SSSSc2ccccc2)cc1 [XV] | 8 (≈ 28.3 µM) | 8 (≈ 28.3 µM) | 2 (≈ 7.08 µM) | – | –
13 | CN(C)SSN(C)C [XVI] | 0.25 (≈ 1.64 µM) | 0.5 (≈ 3.28 µM) | 8 (≈ 52.5 µM) | – | –
14 | CC(C)OSSOC(C)C [II] | 1 (≈ 5.49 µM) | 0.5 (≈ 2.74 µM) | 4 (≈ 21.9 µM) | – | –
15 | CCCOSSOCCC [I] | 32 (≈ 176 µM) | 32 (≈ 176 µM) | 16 (≈ 87.8 µM) | – | –
16 | c1ccc(NSSNc2ccccc2)cc1 [X] | 4 (≈ 16.1 µM) | 4 (≈ 16.1 µM) | 0.5 (≈ 2.01 µM) | – | –
17 | CC(C)NSSNC(C)C [VII] | 32 (≈ 177 µM) | 32 (≈ 177 µM) | 2 (≈ 11.1 µM) | – | –
18 | CCC(C)NSSNC(C)CC (stereo not drawn) [IX] | 16 (≈ 76.8 µM) | 16 (≈ 76.8 µM) | 8 (≈ 38.4 µM) | – | –
19 | CC(C)SSSSC(C)C [XII] | 32 (≈ 149 µM) | 32 (≈ 149 µM) | 8 (≈ 37.3 µM) | – | –
20 | CCC(C)OSSOC(C)CC (stereo not drawn) [IV] | 16 (≈ 76.1 µM) | 8 (≈ 38 µM) | 16 (≈ 76.1 µM) | – | –
21 | CCCSSSSCCC [XI] | 32 (≈ 149 µM) | 32 (≈ 149 µM) | 1 (≈ 4.66 µM) | – | –
22 | CCCCOSSOCCCC [III] | 0.25 (≈ 1.19 µM) | 8 (≈ 38 µM) | 4 (≈ 19 µM) | – | –
